Measured values from patent US7192924B2, “Corticotropin releasing factor 2 receptor agonists” (priority 2002, dated 2007).
Where two headings read alike, the source gives them in different places. Peptide text beside a SMILES is read from it.

How the values were obtained:
[1] = target: T1, CRF2R (Homo sapiens, UniProt Q13324); experiment: CRF2R agonist activity (EC50, Emax), called comparative CRF binding; assay type: cell-based
T1 sequence (Q13324 1-411): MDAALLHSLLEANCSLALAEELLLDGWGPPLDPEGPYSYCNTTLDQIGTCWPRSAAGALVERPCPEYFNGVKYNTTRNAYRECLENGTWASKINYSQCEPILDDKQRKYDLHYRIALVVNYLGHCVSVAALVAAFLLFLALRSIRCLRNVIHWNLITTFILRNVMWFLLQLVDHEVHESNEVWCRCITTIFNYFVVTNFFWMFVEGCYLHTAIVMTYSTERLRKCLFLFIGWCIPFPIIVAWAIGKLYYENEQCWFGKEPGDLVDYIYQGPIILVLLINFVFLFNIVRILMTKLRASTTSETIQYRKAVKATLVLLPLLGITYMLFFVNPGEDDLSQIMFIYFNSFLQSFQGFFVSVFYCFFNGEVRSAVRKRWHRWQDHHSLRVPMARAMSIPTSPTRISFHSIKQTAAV
Summary of the method: (§1)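 Single-subtype CRFR cells, peptide vs vehicle, cAMP via CRE-reporter or lysate assay; background from other CRFR type subtracted if present.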

[2] = target: T2, CRF1R (Homo sapiens, UniProt P34998); experiment: CRF1R agonist activity (EC50, Emax), called comparative CRF binding; assay type: cell-based
T2 sequence (P34998 24-415): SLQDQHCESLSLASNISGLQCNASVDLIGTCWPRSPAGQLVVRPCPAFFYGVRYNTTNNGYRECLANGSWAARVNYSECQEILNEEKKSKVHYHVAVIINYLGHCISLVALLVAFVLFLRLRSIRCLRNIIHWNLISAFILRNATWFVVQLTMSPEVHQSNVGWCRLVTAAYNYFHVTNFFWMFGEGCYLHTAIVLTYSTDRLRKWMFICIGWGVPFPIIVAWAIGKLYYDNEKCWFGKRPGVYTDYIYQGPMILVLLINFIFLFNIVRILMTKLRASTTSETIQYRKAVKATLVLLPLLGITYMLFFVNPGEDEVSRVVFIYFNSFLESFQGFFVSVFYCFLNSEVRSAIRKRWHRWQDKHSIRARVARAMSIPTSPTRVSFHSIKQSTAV
Summary of the method: as §1

| Compound | EC50 ([1]; read-out: CRF2R EC50) [nM] | EC50 ([2]; read-out: CRF1R EC50) [nM] | EC50 [1] [nM] | EC50 [2] [nM] |
| --- | --- | --- | --- | --- |
| CC[C@H](C)[C@H](N)C(=O)N[C@H](C(=O)N[C@@H](CC(C)C)C(=O)N[C@@H](CO)C(=O)N[C@@H](CC(C)C)C(=O)N[C@@H](CC(=O)O)C(=O)N[C@H](C(=O)N1CCC[C@H]1C(=O)N[C@H](C(=O)NCC(=O)N[C@@H](CC(C)C)C(=O)N[C@@H](CC(C)C)C(=O)N[C@@H](CCC(N)=O)C(=O)N[C@H](C(=O)N[C@@H](CC(C)C)C(=O)N[C@@H](CC(C)C)C(=O)N[C@@H](CCC(=O)O)C(=O)N[C@@H](CCC(N)=O)C(=O)N[C@@H](CCCNC(=N)N)C(=O)N[C@@H](C)C(=O)N[C@@H](CCCNC(=N)N)C(=O)N[C@@H](C)C(=O)N[C@@H](C)C(=O)N[C@@H](CCCNC(=N)N)C(=O)N[C@@H](CCC(=O)O)C(=O)N[C@@H](CCC(N)=O)C(=O)N[C@@H](C)C(=O)N[C@H](C(=O)N[C@H](C(=O)N[C@@H](CC(N)=O)C(=O)N[C@@H](C)C(=O)N[C@@H](CCCNC(=N)N)C(=O)N[C@H](C(=O)N[C@@H](CC(C)C)C(=O)N[C@@H](C)C(=O)N[C@@H](CCCNC(=N)N)C(=O)N[C@H](C(N)=O)C(C)C)[C@@H](C)CC)[C@@H](C)O)[C@@H](C)O)[C@@H](C)CC)[C@@H](C)CC)C(C)C)C(C)C [compound 137] (H-IVLSLDVPIGLLQILLEQRARAAREQATTNARILARV-NH2; N-terminus assumed) | 36.9 | > 100 |  |  |
| CC[C@H](C)[C@H](N)C(=O)N[C@H](C(=O)N[C@@H](CC(C)C)C(=O)N[C@@H](CO)C(=O)N[C@@H](CC(C)C)C(=O)N[C@@H](CC(=O)O)C(=O)N[C@H](C(=O)N1CCC[C@H]1C(=O)N[C@H](C(=O)NCC(=O)N[C@@H](CC(C)C)C(=O)N[C@@H](CC(C)C)C(=O)N[C@@H](CCC(N)=O)C(=O)N[C@H](C(=O)N[C@@H](CC(C)C)C(=O)N[C@H](C(=O)N[C@@H](CCC(=O)O)C(=O)N[C@H](C(=O)N[C@@H](CCC(=O)O)C(=O)N[C@@H](CCCCN)C(=O)N[C@@H](CCC(N)=O)C(=O)N[C@@H](CCC(=O)O)C(=O)N[C@@H](CCCCN)C(=O)N[C@@H](CCC(=O)O)C(=O)N[C@@H](CCCCN)C(=O)N[C@@H](CCC(N)=O)C(=O)N[C@@H](CCC(N)=O)C(=O)N[C@@H](C)C(=O)N[C@@H](C)C(=O)N[C@@H](CC(N)=O)C(=O)N[C@@H](CC(N)=O)C(=O)N[C@@H](CCCNC(=N)N)C(=O)N[C@@H](CC(C)C)C(=O)N[C@@H](CC(C)C)C(=O)N[C@@H](CC(C)C)C(=O)N[C@@H](CC(=O)O)C(=O)N[C@H](C(=O)N[C@H](C(N)=O)[C@@H](C)CC)[C@@H](C)O)[C@@H](C)CC)[C@@H](C)CC)[C@@H](C)CC)[C@@H](C)CC)C(C)C)C(C)C [compound 154] (H-IVLSLDVPIGLLQILIEIEKQEKEKQQAANNRLLLDTI-NH2; N-terminus assumed) |  |  | 10.3 | > 100 |
| CC[C@H](C)[C@H](N)C(=O)N[C@H](C(=O)N[C@@H](CC(C)C)C(=O)N[C@@H](CO)C(=O)N[C@@H](CC(C)C)C(=O)N[C@@H](CC(=O)O)C(=O)N[C@H](C(=O)N1CCC[C@H]1C(=O)N[C@H](C(=O)NCC(=O)N[C@@H](CC(C)C)C(=O)N[C@@H](CC(C)C)C(=O)N[C@@H](CCC(N)=O)C(=O)N[C@H](C(=O)N[C@@H](CC(C)C)C(=O)N[C@@H](CC(C)C)C(=O)N[C@@H](CCC(=O)O)C(=O)N[C@@H](CCSC)C(=O)N[C@H](C(=O)N[C@@H](CCCCN)C(=O)N[C@@H](C)C(=O)N[C@@H](CC(=O)O)C(=O)N[C@@H](CCC(N)=O)C(=O)N[C@@H](CC(C)C)C(=O)N[C@@H](C)C(=O)N[C@@H](CCC(N)=O)C(=O)N[C@@H](CCC(N)=O)C(=O)N[C@@H](C)C(=O)N[C@@H](Cc1c[nH]cn1)C(=O)N[C@@H](CO)C(=O)N[C@@H](CC(N)=O)C(=O)N[C@@H](CCCNC(=N)N)C(=O)N[C@@H](CCCCN)C(=O)N[C@@H](CC(C)C)C(=O)N[C@@H](CC(C)C)C(=O)N[C@@H](CC(=O)O)C(=O)N[C@H](C(=O)N[C@@H](C)C(N)=O)[C@@H](C)CC)[C@@H](C)O)[C@@H](C)CC)[C@@H](C)CC)C(C)C)C(C)C [compound 155] (H-IVLSLDVPIGLLQILLEMTKADQLAQQAHSNRKLLDIA-NH2; N-terminus assumed) | 20.6 | 40.6 |  |  |
| CC[C@H](C)[C@H](N)C(=O)N[C@H](C(=O)N[C@@H](CC(C)C)C(=O)N[C@@H](CO)C(=O)N[C@@H](CC(C)C)C(=O)N[C@@H](CC(=O)O)C(=O)N[C@H](C(=O)N1CCC[C@H]1C(=O)N[C@H](C(=O)NCC(=O)N[C@@H](CC(C)C)C(=O)N[C@@H](CC(C)C)C(=O)N[C@@H](CCC(N)=O)C(=O)N[C@H](C(=O)N[C@@H](CC(C)C)C(=O)N[C@@H](CC(C)C)C(=O)N[C@@H](CCC(=O)O)C(=O)N[C@@H](CCC(N)=O)C(=O)N[C@H](C(=O)N[C@@H](CCCCN)C(=O)N[C@@H](C)C(=O)N[C@@H](CC(=O)O)C(=O)N[C@@H](CCC(N)=O)C(=O)N[C@@H](CC(C)C)C(=O)N[C@@H](C)C(=O)N[C@@H](CCC(N)=O)C(=O)N[C@@H](CCC(N)=O)C(=O)N[C@@H](C)C(=O)N[C@@H](Cc1c[nH]cn1)C(=O)N[C@@H](CO)C(=O)N[C@@H](CC(N)=O)C(=O)N[C@@H](CCCNC(=N)N)C(=O)N[C@@H](CCCCN)C(=O)N[C@@H](CC(C)C)C(=O)N[C@@H](CC(C)C)C(=O)N[C@@H](CC(=O)O)C(=O)N[C@H](C(=O)N[C@@H](C)C(N)=O)[C@@H](C)CC)[C@@H](C)O)[C@@H](C)CC)[C@@H](C)CC)C(C)C)C(C)C [compound 159] (H-IVLSLDVPIGLLQILLEQTKADQLAQQAHSNRKLLDIA-NH2; N-terminus assumed) | 90.8 | > 100 |  |  |
| CC[C@H](C)[C@H](N)C(=O)N[C@H](C(=O)N[C@@H](CC(C)C)C(=O)N[C@@H](CO)C(=O)N[C@@H](CC(C)C)C(=O)N[C@@H](CC(=O)O)C(=O)N[C@H](C(=O)N1CCC[C@H]1C(=O)N[C@H](C(=O)NCC(=O)N[C@@H](CC(C)C)C(=O)N[C@@H](CC(C)C)C(=O)N[C@@H](CCC(N)=O)C(=O)N[C@H](C(=O)N[C@@H](CC(C)C)C(=O)N[C@@H](CC(C)C)C(=O)N[C@@H](CCC(=O)O)C(=O)N[C@@H](CC(C)C)C(=O)N[C@@H](C)C(=O)N[C@@H](CCCNC(=N)N)C(=O)N[C@H](C(=O)N[C@@H](CCC(N)=O)C(=O)N[C@@H](CO)C(=O)N[C@@H](CCC(N)=O)C(=O)N[C@@H](CCCNC(=N)N)C(=O)N[C@@H](CCC(=O)O)C(=O)N[C@@H](CCCNC(=N)N)C(=O)N[C@@H](C)C(=O)N[C@@H](CCC(=O)O)C(=O)N[C@@H](CCC(N)=O)C(=O)N[C@@H](CC(N)=O)C(=O)N[C@@H](CCCNC(=N)N)C(=O)N[C@H](C(=O)N[C@H](C(=O)N[C@@H](Cc1ccccc1)C(=O)N[C@@H](CC(=O)O)C(=O)N[C@@H](CO)C(=O)N[C@H](C(N)=O)C(C)C)[C@@H](C)CC)[C@@H](C)CC)[C@@H](C)O)[C@@H](C)O)[C@@H](C)CC)C(C)C)C(C)C [compound 160] (H-IVLSLDVPIGLLQTLLELARTQSQRERAEQNRIIFDSV-NH2; N-terminus assumed) | 9.15 | > 100 |  |  |
| CC[C@H](C)[C@H](N)C(=O)N[C@H](C(=O)N[C@@H](CC(C)C)C(=O)N[C@@H](CO)C(=O)N[C@@H](CC(C)C)C(=O)N[C@@H](CC(=O)O)C(=O)N[C@H](C(=O)N1CCC[C@H]1C(=O)N[C@H](C(=O)NCC(=O)N[C@@H](CC(C)C)C(=O)N[C@@H](CC(C)C)C(=O)N[C@@H](CCC(N)=O)C(=O)N[C@H](C(=O)N[C@@H](CC(C)C)C(=O)N[C@@H](CC(C)C)C(=O)N[C@@H](CCC(=O)O)C(=O)N[C@@H](CCSC)C(=O)N[C@@H](C)C(=O)N[C@@H](CCCNC(=N)N)C(=O)N[C@@H](C)C(=O)N[C@@H](CCC(=O)O)C(=O)N[C@@H](CCC(N)=O)C(=O)N[C@@H](CC(C)C)C(=O)N[C@@H](C)C(=O)N[C@@H](CCC(N)=O)C(=O)N[C@@H](CCC(N)=O)C(=O)N[C@@H](C)C(=O)N[C@@H](Cc1c[nH]cn1)C(=O)N[C@@H](CO)C(=O)N[C@@H](CC(N)=O)C(=O)N[C@@H](CCCNC(=N)N)C(=O)N[C@@H](CCCCN)C(=O)N[C@@H](CC(C)C)C(=O)N[C@@H](CCSC)C(=O)N[C@@H](CCC(=O)O)C(=O)N[C@H](C(=O)N[C@H](C(N)=O)[C@@H](C)CC)[C@@H](C)CC)[C@@H](C)CC)[C@@H](C)CC)C(C)C)C(C)C [compound 164] (H-IVLSLDVPIGLLQILLEMARAEQLAQQAHSNRKLMEII-NH2; N-terminus assumed) | 2.24 | > 100 |  |  |
